Source: the supplement of paper PMC6045584
± gives the standard deviation of the averaged measurements.

Assays:
[1] = compound: CC(=O)NCC(=O)N1[C@@H]2CC[C@H]1c1ccc(Nc3ncc(C(F)(F)F)c(NC4CCC4)n3)cc12; experiment: surviving fraction relative to DMSO-only wells; higher = less growth inhibition; conditions: exposure time: 5 days
Method in brief: (§1)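 Log-phase tumour cells were seeded at 250–500 per well in 384-well plates and, from 24 hours after seeding, exposed continuously for five days to inhibitors at 0.5, 1, 5, 10, 50, 100, 500 and 1000 nM. Surviving fraction is CellTiter-Glo luminescence normalised to the median of DMSO-only wells. Luminescence was measured after 10 minutes at room temperature, and only lines screened three times with replicate Pearson r >0.7 and median Z' >0.3 were kept.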

PACLITAXEL = compound: CC(=O)O[C@H]1C(=O)[C@@]2(C)[C@H]([C@H](OC(=O)c3ccccc3)[C@]3(O)C[C@H](OC(=O)[C@H](O)[C@@H](NC(=O)c4ccccc4)c4ccccc4)C(C)=C1C3(C)C)[C@]1(OC(C)=O)CO[C@@H]1C[C@@H]2O [PACLITAXEL]; experiment: as above; conditions: exposure time: 5 days
Method in brief: as §1

Test System	surviving fraction ([1]; 0.5 nM)	surviving fraction ([1]; 1 nM)	surviving fraction ([1]; 5 nM)	surviving fraction ([1]; 10 nM)	surviving fraction ([1]; 50 nM)	surviving fraction ([1]; 100 nM)	surviving fraction ([1]; 500 nM)	surviving fraction ([1]; 1000 nM)	surviving fraction (PACLITAXEL; 0.5 nM)	surviving fraction (PACLITAXEL; 1 nM)	surviving fraction (PACLITAXEL; 5 nM)	surviving fraction (PACLITAXEL; 10 nM)	surviving fraction (PACLITAXEL; 50 nM)	surviving fraction (PACLITAXEL; 100 nM)	surviving fraction (PACLITAXEL; 500 nM)	surviving fraction (PACLITAXEL; 1000 nM)
YAMATO SYNOVIAL	1.06 ± 0.048	1.02 ± 0.049	1.1 ± 0.061	1.14 ± 0.058	0.994 ± 0.005	0.738 ± 0.023	0.622 ± 0.022	0.543 ± 0.058	1.04 ± 0.16	0.891 ± 0.036	0.488 ± 0.069	0.464 ± 0.043	0.377 ± 0.012	0.359 ± 0.021	0.346 ± 0.0061	0.426 ± 0.016
SYO1 SYNOVIAL	0.943 ± 0.061	0.955 ± 0.024	0.93 ± 0.08	0.893 ± 0.078	0.388 ± 0.06	0.266 ± 0.027	0.2212 ± 0.0014	0.237 ± 0.013	0.828 ± 0.041	0.592 ± 0.015	0.107 ± 0.0096	0.0752 ± 0.0059	0.056 ± 0.0057	0.0522 ± 0.0059	0.0456 ± 0.0087	0.048 ± 0.009
SG27 HEADNECK	1.04 ± 0.03	1.05 ± 0.042	0.868 ± 0.14	1.04 ± 0.079	0.948 ± 0.054	0.872 ± 0.043	0.843 ± 0.061	0.919 ± 0.05	0.88 ± 0.066	0.899 ± 0.062	0.937 ± 0.032	0.935 ± 0.056	0.888 ± 0.1	0.911 ± 0.097	1.01 ± 0.04	0.849 ± 0.068
SKBR3 BREAST	1.09 ± 0.12	0.942 ± 0.2	1.07 ± 0.18	1 ± 0.16	0.762 ± 0.06	0.892 ± 0.14	1.13 ± 0.039	0.865 ± 0.17	0.925 ± 0.13	0.413 ± 0.061	0.165 ± 0.0059	0.157 ± 0.02	0.135 ± 0.023	0.139 ± 0.013	0.123 ± 0.015	0.136 ± 0.028
HS578T BREAST	1 ± 0.016	0.962 ± 0.088	0.918 ± 0.23	0.879 ± 0.027	0.866 ± 0.085	0.721 ± 0.081	0.592 ± 0.071	0.559 ± 0.11	0.428 ± 0.043	0.246 ± 0.019	0.127 ± 0.0038	0.108 ± 0.011	0.126 ± 0.013	0.109 ± 0.0027	0.11 ± 0.01	0.101 ± 0.01
MDAMB436 BREAST	0.912 ± 0.039	0.875 ± 0.053	0.908 ± 0.033	0.882 ± 0.12	0.937 ± 0.1	0.762 ± 0.079	0.435 ± 0.021	0.391 ± 0.03	0.794 ± 0.033	0.684 ± 0.015	0.314 ± 0.022	0.21 ± 0.0036	0.192 ± 0.03	0.173 ± 0.016	0.171 ± 0.014	0.198 ± 0.018
MDAMB134 BREAST	0.998 ± 0.048	1.07 ± 0.37	1.01 ± 0.04	1.02 ± 0.11	0.992 ± 0.041	1.25 ± 0.18	1.13 ± 0.12	1.31 ± 0.1	0.936 ± 0.055	0.994 ± 0.033	0.904 ± 0.18	0.67 ± 0.13	0.587 ± 0.11	0.4935 ± 0.00071	0.491 ± 0.072	0.598 ± 0.077
OS25HAL BONE	0.962 ± 0.045	0.9613 ± 0.0038	0.97 ± 0.024	0.947 ± 0.015	0.796 ± 0.062	0.605 ± 0.092	0.428 ± 0.069	0.264 ± 0.029	0.99 ± 0.023	0.993 ± 0.039	0.29 ± 0.028	0.118 ± 0.007	0.077 ± 0.0062	0.0677 ± 0.011	0.0523 ± 0.0029	0.0687 ± 0.017
HCC1954 BREAST	0.891 ± 0.079	0.784 ± 0.085	1.17 ± 0.054	0.986 ± 0.042	0.828 ± 0.022	0.745 ± 0.14	1.07 ± 0.021	0.905 ± 0.11	0.6985 ± 0.00071	0.569 ± 0.0021	0.199 ± 0.0014	0.094 ± 0.0057	0.0897 ± 0.0025	0.071 ± 0.0028	0.0592 ± 0.012	0.0653 ± 0.015
MCF7 BREAST	0.864 ± 0.018	0.858 ± 0.028	0.808 ± 0.034	0.826 ± 0.021	0.776 ± 0.018	0.741 ± 0.027	0.656 ± 0.035	0.549 ± 0.026	0.863 ± 0.077	0.714 ± 0.016	0.432 ± 0.02	0.383 ± 0.0065	0.372 ± 0.01	0.356 ± 0.0077	0.333 ± 0.013	0.326 ± 0.012
SCC90 HEADNECK	0.769 ± 0.12	0.816 ± 0.048	0.936 ± 0.035	0.991 ± 0.089	0.66 ± 0.13	0.62 ± 0.084	0.665 ± 0.048	0.613 ± 0.017	0.919 ± 0.038	0.95 ± 0.12	0.429 ± 0.057	0.294 ± 0.063	0.119 ± 0.024	0.0713 ± 0.011	0.07 ± 0.012	0.0663 ± 0.01
